{"source": "paper PMC5535166", "about": "(Toxins, 2017)", "biological_target": "T1, rShGST (recombinant Schistoma japonicum GST) (Schistosoma japonicum, UniProt P08515)", "T1 construct": "GST expressed from the empty vector pGEX-6P-1 (vector-encoded C-terminal linker), E. coli BL21(DE3), Glutathione Sepharose", "T1 sequence (P08515 2-218)": "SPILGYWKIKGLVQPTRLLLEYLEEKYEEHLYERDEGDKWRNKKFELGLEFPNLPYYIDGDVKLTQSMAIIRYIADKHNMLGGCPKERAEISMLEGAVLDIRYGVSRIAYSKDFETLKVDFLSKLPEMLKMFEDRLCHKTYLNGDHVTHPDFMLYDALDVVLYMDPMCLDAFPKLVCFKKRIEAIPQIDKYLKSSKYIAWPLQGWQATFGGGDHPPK", "assay": "GST activity with CDNB, absorbance at […] nm", "type": "biochemical", "conditions": "100 µM inhibitor; 1 mM CDNB, 1 mM GSH, 0.1 M phosphate pH 6.5"}
{"smiles": "C=C(CC)C(=O)c1ccc(OCC(=O)O)c(Cl)c1Cl", "note": "[ethacrynic acid]", "values": [{"measurement": "GST activity, % of control at 100 μM", "result": "Ethacrynic acid strongly inhibited the GST activity of recombinant Schistoma japonicum GST (rShGST)"}]}
